From patent US7557215B2, “Anthraquinone compounds as anti cancer compounds” (Somanta Limited, priority 2003, dated 2009)
Like-named read-outs stand apart in the source and are kept apart here.

Key:
A2780 [1] = test system: A2780
A2780 [2] = assay: Inhibition of cell growth, A2780 wild type ovarian carcinoma cell line
A2780/cp70 = assay: Inhibition of cell growth, cisplatin resistant A2780/cp70 cell line; format: cell-based, human; conditions: for RF against the cisplatin resistant cells: text b280, b283; for IC50: Homo sapiens
[3] = test system: human ovarian tumour xenograft (A2780); assay: Tumour doubling time, human ovarian tumour xenograft A2780 in mice; format: in vivo
From the text: (§1) Compound HAQ71, with the lowest RF (0.2) of the panel of compounds tested against the cisplatin resistant cells and its chloropropyl-substituted analogue, was selected for in vivo investigation in mice using tumour A2780 and A2780/cp70 cells grown as xenografts in mice. Significant anticancer activity in vivo of HAQ71 and CAQ75 was shown; both compounds exerting similar tumour growth delay in human xenografted wild-type and acquired cisplatin resistant tumours (A2780/cp70). The latter is very refractory to cisplatin and other covalent binding agents and has been characterised with elevated levels of glutathione, alterations in drug uptake/efflux and DNA repair mechanisms including mismatch repair deficiency.

[4] = test system: cisplatin resistant variant (A2780/cp70) xenograft; assay: Tumour doubling time, cisplatin resistant variant xenograft A2780/cp70 in mice; format: in vivo
From the text: as §1

2780AD = assay: Inhibition of cell growth, adriamycin (doxorubicin) resistant 2780AD cell line; format: cell-based, human; conditions: Homo sapiens, read-out: Inhibition of cell growth 2780AD nM (IC50)

## C[N+](C)([O-])CCNc1ccc(NCC[N+](C)(C)[O-])c2c1C(=O)c1c(O)ccc(O)c1C2=O [AQ4N]
A2780 [1]
  cytotoxicity ratio (CR=IC50 of alkylaminoanthraquinone-di-N-oxide/IC50 alkylaminoanthraquinone): 17,000
A2780 [2]; read-out: Growth Inhibition (IC50) A2780, A2780, Table 4
  IC50: > 100000 nM

## CN(C)CCNc1ccc(NCCN2CCCCC2CCl)c2c1C(=O)c1c(O)ccc(O)c1C2=O (stereo not shown) [CAQ75, 1-{[2-(2-Chloromethylpiperidin-1-yl)ethyl]amino}-4-{[(2-dimethylamino)ethyl]amino}-5,8-dihydroxyanthracene-9,10-dione]
A2780/cp70
  RF against the cisplatin resistant cells: 0.4
[3]; 16 mg/kg i.p.
  doubling time (days) of tumour xenograft: 5.83 ± 0.40 days
  tumour doubling time, percent: 198%
[4]; 16 mg/kg i.p.
  doubling time (days) of tumour xenograft: 4.18 ± 0.27 days
  tumour growth delay (%): 166%
A2780 [2]; CAQ75 compared with HAQ71
  fold decrease in cytotoxicity on substitution of OH with Cl (HAQ71 vs CAQ75): > 10 fold

## O=C1c2ccccc2C(=O)c2c(NCCN3CCCC3CCl)cccc21 (stereo not shown) [CAQ191M, 1-{[2-(2-chloromethylpyrrolidin-1-yl)ethyl]amino}-anthracene-9,10-dione]
2780AD; 2780AD
  IC50: > 1000 nM
A2780/cp70; A2780/CP70, read-out: Inhibition of cell growth A2780/cp70 nM (IC50)
  IC50: > 1 µM
other
  melting point: 250 to 253 °C
A2780 [2]; Homo sapiens, A2780, read-out: Inhibition of cell growth A2780 nM (IC50)
  IC50: > 1000 nM

## CN(C)CCNc1ccc(NCCN2CCCC(CO)C2)c2c1C(=O)c1c(O)ccc(O)c1C2=O (stereo not shown) [HAQ71, 1-[(2-Dimethylamino)ethylamino]-4-[2-(3-hydroxymethyl-piperidin-1-yl)ethylamino]-5,8-dihydroxy-anthracene-9,10-dione]
A2780/cp70
  RF against the cisplatin resistant cells: 0.2
[3]; 20 mg/kg i.p.
  doubling time (days) of tumour xenograft: 5.23 ± 0.39 days
  tumour doubling time, percent: 177%
[4]; 20 mg/kg i.p.
  doubling time (days) of tumour xenograft: 4.33 ± 0.16 days
  tumour growth delay (%): 172%
A2780 [2]; read-out: Inhibition of cell growth (IC50, nM) A2780, A2780, Table 1
  IC50: 8.4 nM

## O=C1c2ccccc2C(=O)c2c(NCCN3CCCC3CO)cccc21 (stereo not shown) [HAQ163, 1-{[2-(2-Hydroxymethylpyrrolidin-1-yl)ethyl]amino}-anthracene-9,10-dione]
2780AD; 2780AD adriamycin resistant
  IC50: > 1000 nM
A2780/cp70; A2780/cp70 cisplatin resistant, read-out: Inhibition of cell growth A2780/cp70 nM (IC50)
  IC50: > 1 µM
other
  melting point: 113 to 115 °C
A2780 [2]; read-out: Inhibition of cell growth A2780 nM (IC50)
  IC50: > 1000 nM
